Source: publication PMC3441706 (PLoS ONE, 2012)

What was measured:
Format in all cases: cell-based, human
[1] = test system: p-p53 (Ser15); assay: Immunofluorescence staining of p-p53 (Ser15) in HCT116 cells; conditions: HCT116, 24 hours, 1 µM (positive control)
Method: (§1) HCT116 and HeLa cells were seeded on glass cover slips in 6-well plates. 24 hours after plating, HCT116 cells were incubated with 0.15, 0.5 and 1 µM NVX-412 and 1 µM CPT for 24 hours for staining of p-p53. For investigating γH2AX, HeLa cells were incubated with 0.21, 0.5 and 1 µM NVX-412 and 1 µM CPT for 3 or 24 hours. Additionally, cells were allowed to recover for 24 hours in normal growth medium after 24 hours of incubation with NVX-412 or CPT (wash-out experiment). After the respective treatments, cells were washed and fixed with 4% methanol-free formaldehyde (Polysciences Inc. Warrington, PA, USA) for 15 minutes at room temperature and then permeabilized with 0.2% Triton X-100/PBS for 2 minutes at room temperature. After blocking with goat serum (5%) in 1% BSA/0.3% Triton X-100/PBS, the respective primary antibody was added and cells were incubated at 4°C overnight. Antibodies used were: mouse p-p53 (Ser15) (Cell Signaling Technology, Danvers, MA, USA) at 1∶100 dilution and mouse p-H2AX (Ser139) (Millipore, Billerica, MA, USA) at 1∶1000 dilution in 1% BSA/PBS, respectively. Cells were then washed 3 times for 10 minutes with 0.25% BSA/0.1% Triton X-100/PBS and incubated with the Alexa Fluor 488 conjugated secondary anti-mouse antibody (1∶1000 in 0.25% BSA/0.1% Triton X-100/PBS) for 1 hour at room temperature in the dark. Cells were washed 3 times for 10 minutes with 0.05% Tween-20/PBS containing Hoechst 33342 (Sigma Aldrich, Vienna, AUT) and mounted with mounting medium (Fluoprep, bioMérieux, Marcy l'Etoile, FRA). Fluorescence was immediately recorded on a Zeiss LSM700 laser scanning microscope.

[2] = test system: p-p53 (Ser15); assay: Western Blot for p-p53 (Ser15) in HCT116 cells; conditions: HCT116, 24 and 48 hours, 1 µM (control)
Method: Treated cells were directly lysed in NP40 cell lysis buffer (Invitrogen, Grand Island, NY, USA) containing protease and phosphatase inhibitors. Protein concentrations were measured colorimetrically (DC Protein Assay, Bio-Rad Laboratories, Hercules, CA, USA). Proteins were separated by SDS - polyacrylamide gel electrophoresis and blotted onto nitrocellulose membranes (Whatman™, Vienna, AUT). Equal loading was checked by Ponceau S (SERVA, Heidelberg, GER) staining. Bound antigen was visualized with the enhanced chemiluminescence detection system (Roche Diagnostics, Indianapolis, IN, USA). These procedures were performed according to the manufacturer’s protocols. Antibodies specific for the following proteins of interest were used: pChk1 (Ser296), p-p53 (Ser15), β-Tubulin and GAPDH were obtained from Cell Signaling Technology (Danvers, MA, USA) at 1∶1000 dilution. Secondary antibodies were peroxidase-tagged goat anti-rabbit or anti-mouse IgGs (Cell Signaling Technology) (1∶2000).

[3] = test system: HCT116 cells; assay: Flow cytometric cell cycle analysis; conditions: HCT116, 24 hours
Method: (§2) HT-29, HeLa and HCT116 cells were plated in 6-well plates. […] CPT was used at 50 nM and 1 µM. To analyze the cell cycle distribution, cells were collected after 24 hours of incubation and washed with PBS. Cells were fixed in 70% ethanol for at least 2 hours. For analysis, cells were transferred into PBS, incubated with RNAse A (0.04 µg/ml final concentration) for 30 minutes at 37°C, treated with […] propidium iodide for 30 min at 4°C and then analyzed by flow cytometry using BD FACScan (Becton, Dickinson and Company, Franklin Lakes, NJ, USA). The resulting DNA histograms were quantified using ModFit LT (Verity Software House, Topsham, ME, USA).

[4] = test system: HT-29 cells; assay: Flow cytometric cell cycle analysis; conditions: HT-29, 24 hours
Method: as §2

[5] = test system: HeLa cells; assay: Flow cytometric cell cycle analysis; conditions: 24 hours
Method: as §2

[6] = test system: HCT116 cells; assay: DNA replication rate (BrdU incorporation ELISA); conditions: HCT116, 24 hours treatment then 24 hours in normal growth medium
Method: (§3) HeLa and HCT116 cells were plated in black 96-well plates. After cells were allowed to recover for 24 hours NVX-412 or CPT was added in fresh growth medium. After 24 hours of incubation a chemiluminescent BrdU Incorporation ELISA (Roche Applied Science, Penzberg, Germany) was performed with half of the plates according to the manufacturer’s protocol. Cells in the remaining plates were allowed to recover for 24 hours in normal growth medium before DNA replication was measured (wash-out experiment). To check whether a possible decline in DNA replication rate is not simply due to lower cell numbers because of cell death induction, the proportion of viable cells was determined in parallel by a MTT-based cytotoxicity assay according to the manufacturer’s protocol (EZ4U, Biomedica, Vienna, Austria). Colorimetric (at 492 and 620 nm) and chemiluminescent measurements were performed using a FLUOstar OPTIMA (BMG Labtech, Ortenberg, Germany).

[7] = test system: HeLa cells; assay: DNA replication rate (BrdU incorporation ELISA); conditions: 24 hours treatment then 24 hours in normal growth medium
Method: as §3

[8] = test system: γH2AX (Ser139); assay: Immunofluorescence staining and quantification of γH2AX in HeLa cells
Method: as §1
The common procedure for assessing γH2AX induction is to count γH2AX foci. Since with NVX-412 and the positive control CPT γH2AX activation was that strong, no distinguishable and countable foci were seen. Therefore, the average γH2AX fluorescence intensity per nucleus was determined. To this end, γH2AX intensities within a certain field were measured using Quantity One –4.6.9 (Basic freeware version, Bio-Rad Laboratories, Hercules, CA, USA) and were divided by the number of nuclei in this field.

[9] = test system: HCT116 p53+/+ or p53−/− cells; assay: Determination of p53 status dependency; conditions: HCT116 p53+/+ vs p53−/−, 72 hours, viable cell numbers
Method: (§4) The isogenic colon carcinoma cells lines HCT116 p53+/+ or p53−/− and RKO p53+/+ or p53−/− were cultured in 12-well plates. After a recovery period of 24 hours, NVX-412 or Nutlin-3 was added in fresh growth medium at the indicated concentrations. […] After 24 or 72 hours cell numbers were determined with a Beckman Coulter ViCell XR.

[10] = test system: RKO p53+/+ or p53−/− cells; assay: Determination of p53 status dependency; conditions: RKO p53+/+ vs p53−/−, 72 hours, viable cell numbers
Method: as §4

Structure (SMILES) | p-p53 (Ser15) immunofluorescence staining [1] | Phosphorylated p53 (Western Blot) [2] | Cell cycle distribution ([3]; 50 nM) | Cell cycle distribution ([3]; 1 µM) | Cell cycle distribution ([4]; 50 nM) | Cell cycle distribution ([4]; 1 µM) | Cell cycle distribution ([5]; 50 nM) | Cell cycle distribution ([5]; 1 µM) | DNA replication rate after recovery (wash-out) [6] | DNA replication rate after recovery (wash-out) [7] | γH2AX induction ([8]; 3 hours) | γH2AX levels after recovery (wash-out) ([8]; 24 hours treatment then 24 hours without drug) | p53 status dependency of sensitivity [9] | p53 status dependency of sensitivity [10]
CC[C@@]1(O)C(=O)OCc2c1cc1n(c2=O)Cc2cc3ccccc3nc2-1 [CPT, (S)-(+)-Camptothecin, reference compound] | positive for nuclear staining of p-p53 (Ser15) | strong induction | G2/M-phase arrest | most of the cells were already dead | G2/M arrest | S-phase arrest | G2/M arrest | S-phase arrest | a recovery was only observed at the lowest concentration tested | a recovery was only observed at the lowest concentration tested | Only a slight induction of γH2AX | not reversible |  | 
COc1ccc(C2=N[C@@H](c3ccc(Cl)cc3)[C@@H](c3ccc(Cl)cc3)N2C(=O)N2CCNC(=O)C2)c(OC(C)C)c1 [Nutlin-3, reference compound] |  |  |  |  |  |  |  |  |  |  |  |  | p53+/+ cells being much more sensitive than p53−/− cells | p53+/+ cells being much more sensitive than p53−/− cells
